According to ChEMBL document CHEMBL3301361, “Experimental in vitro DMPK and physicochemical data on a set of publicly disclosed compounds”:
Non-standard residues stand in square brackets, D forms with d. Residues, ends and D or L forms follow the SMILES beside them. Phe(2-Me) = Cc1ccccc1C[C@H](N)C(=O)O

Columns and labels:
physchem = settings: octan-1-ol/water
in vitro = settings: human, plasma

Compound	logD (physchem; pH 7.4, LogD7.4)	fraction unbound at 5 h (in vitro; PPB)	logD (physchem; pH 7.4)	fraction unbound at 5 h (in vitro)
CC(C)C[C@H](CO)Nc1nc(SCc2cccc(C#N)c2)nc2nc(N)sc12	3.9	0.0086	–	–
COc1ccc2ncc(=O)n(CCN3CCC(NCc4cc5c(cn4)OCCO5)CC3)c2n1	0.83	0.465	–	–
NS(=O)(=O)c1ccc(CCNc2ccc3nnc(-c4ccccc4)n3n2)cc1	2.19	0.0321	–	–
COC(=O)[C@H]1[C@@H](c2ccc(I)cc2)C[C@@H]2CC[C@H]1N2CCCF [IOFLUPANE]	–	–	2.3	0.201
C[C@H](CO)Nc1nc(SCc2ccccc2)nc2nc(N)sc12	3.12	0.0457	–	–
NC(=O)c1cnc(N[C@H]2CCCNC2)c2cc(-c3ccc(Cl)cc3)sc12	2.78	0.0081	–	–
CNc1c(Br)cnc2nc(-c3ccnc(N)c3)[nH]c12	2.83	0.0268	–	–
COc1ccc2c(c1)N(CCN1CCC(NCc3cc4c(cn3)OCCO4)CC1)C(=O)CO2	–	–	1.24	0.176
N#Cc1cnn2c(NC3CC3)cc(-n3ccc4ccc(CO)cc43)nc12	3.09	0.0191	–	–
Cc1ccc(NC(=O)c2ccc(Cl)c(C(F)(F)F)c2)cc1C(=O)Nc1cccnc1	2.83	0.0119	–	–
CNc1c(Br)cnc2nc(-c3ccc(OCCN4CCN(C)CC4)cc3)[nH]c12	2.91	0.0383	–	–
COc1cc(Nc2nc(N[C@@H](C)c3ncc(F)cn3)nc(N3CCOCC3)c2F)[nH]n1	2.64	0.253	–	–
Cc1nc(C(=O)[C@H](C)Oc2ccc(SCCCCCc3ccccc3)cc2)sc1CCCC(=O)O	2.03	0.007	–	–
O=C(Cc1ccc(Oc2ccccc2)cc1)NO	2.03	0.02	–	–
COc1ccnc(CCc2nc3cc(Br)cnc3[nH]2)c1	2.92	0.0409	–	–
Cc1c(OCC(F)(F)F)ccnc1C[S+]([O-])c1nc2ccccc2[nH]1 (stereo unspecified) [LANSOPRAZOLE]	–	–	2.7	0.016
CC(C)[C@H]1C(=O)N[C@H](CO)Cc2ccccc2N1C	–	–	2.03	0.371
CC(=O)Nc1ccc2ccn(-c3cc(NCCCCO)n4ncc(C#N)c4n3)c2c1	2.58	0.0409	–	–
COc1cc(Nc2nc(N[C@@H](C)c3ncc(F)cn3)nc(N3CCOCC3)c2Cl)n[nH]1	2.85	0.0784	–	–
NCCCCCc1c[nH]c2ccc(F)cc12	–	–	0.6	0.36
Oc1ncc(NCc2ccccc2)c(O)n1	–	–	0.82	0.635
CN1CCN(C(=O)c2cccc(Cc3n[nH]c(=O)c4ccccc34)c2)CC1	0.92	0.349	–	–
Cc1cn([C@H]2CCCN(S(=O)(=O)c3ccc(C(=O)O)c(Oc4cccc(Cl)c4)c3)C2)c(=O)[nH]c1=O	-1.28	0.04	–	–
CCOc1ccccc1-c1ccc(-c2nc3ccncc3c(O)c2C#N)cc1	3	0.0007	–	–

Compound	logD (physchem; pH 7.4, LogD7.4)	fraction unbound at 5 h (in vitro; PPB)	logD (physchem; pH 7.4)	fraction unbound at 5 h (in vitro)
COc1nccnc1NS(=O)(=O)c1ccc(N)cc1	-0.65	0.232	–	–
N#Cc1ccc2ccc(=O)n(CCN3CC[C@H](NCc4ccc5c(n4)NC(=O)CO5)[C@H](O)C3)c2c1	0.11	0.208	–	–
Cc1c[nH]c(-c2cc(NC(=O)c3ccc(C(F)(F)F)nc3C)ccc2Cl)n1	3.3	0.0391	–	–
COc1cc(OC)c2nc(C)c3c(c2c1)N(c1ccc(O)cc1)CC3	1.5	0.112	–	–
COc1ccc2ccc(=O)n(CCN3CCC(NCc4cc5c(cn4)OCCO5)CC3)c2c1	1.31	0.309	–	–
CN[C@@H](C)C(=O)N[C@H](C(=O)N[C@H]1CCCN(CCc2ccc(C(F)(F)F)cc2)C1)C(C)(C)C	2.85	0.0928	–	–
CC(C)Cn1c(=O)n(C)c(=O)c2c(C(=O)N3CC[C@@H](O)C3)c(Cc3c[nH]c4ncccc34)sc21	1.71	0.314	–	–
Nc1ccc(OCCc2ccccc2)cc1	2.71	0.0343	–	–
Cc1cc(Nc2cc(N3CCOCC3)nc(N[C@@H](C)c3ncc(F)cn3)n2)[nH]n1	1.91	0.54	–	–
CCN(CC)CCNC(=O)c1c(C)[nH]c(/C=C2\C(=O)Nc3ccc(Cl)cc32)c1C [SU-11652]	2.75	0.105	–	–
CNC(=O)c1snnc1-c1ccccc1	1.23	0.563	–	–
COc1ccc([C@]2(O)CC[C@H](N3CC[C@@H](NC(=O)CNC(=O)c4cccc(C(F)(F)F)c4)C3)CC2)cn1	1.72	0.212	–	–
CN[C@@H](C)C(=O)N[C@H](C(=O)N[C@H]1CCCN(CCc2ccccc2)C1)C1CCCCC1	1.65	0.329	–	–
NC(=O)c1cnc(N[C@H]2CCCNC2)c2cc(Br)sc12	1.08	0.179	–	–
COc1ccc2c(c1)N(CCN1CCC(NCc3ccc4c(n3)NC(=O)CO4)CC1)C(=O)CC2	0.66	0.0418	–	–
Cc1nc(N2CCOCC2)c2cc(-c3ccccc3)sc2n1	–	0.0042	–	–
COc1ccc2ncc(=O)n(CCN3CC[C@@H](NCc4cc5c(cn4)OCCO5)[C@H](O)C3)c2c1	–	0.179	–	–
O=C(CN1CCCC1)N1c2ccccc2Sc2ccc(C(F)(F)F)cc21	–	0.0229	–	–
COc1cc(OC)c(S(=O)(=O)NCc2ccccc2N2CCC(CO)CC2)cc1NC(=O)CCC(=O)O	–	0.403	–	–
Cc1csc(N)c1C(N)=O	–	0.324	–	–
C[C@H]1O[C@@H](n2cnc3c(N)nc(OCC4CC45CC5)nc32)[C@H](O)[C@@H]1O (stereo partly specified)	–	0.249	–	–
O=C1COc2ccc(CNC3CCN(CCN4C(=O)COc5ccc([N+](=O)[O-])cc54)CC3)nc2N1	–	–	–	0.249
COc1cnc(-c2ccccn2)nc1N1CCCCC1	–	0.0488	–	–
CCN(CC)CCOc1ccc2c(c1)C(=O)c1cc(OCCN(CC)CC)ccc1-2 [TILORONE]	–	0.517	–	–

Compound	logD (physchem; pH 7.4, LogD7.4)	fraction unbound at 5 h (in vitro; PPB)	logD (physchem; pH 7.4)	fraction unbound at 5 h (in vitro)
CN(Cc1cnc2nc(N)nc(N)c2n1)c1ccc(C(=O)N[C@@H](CCC(=O)O)C(=O)O)cc1 [METHOTREXATE]	–	0.535	–	–
CC(C(=O)OC1CC[N+](C)(C)CC1)(c1ccccc1)N1CCCCC1 (stereo unspecified)	–	0.78	–	–
COc1ccc2ncc(=O)n(CCN3CC[C@@H](NCc4ccc5c(n4)NC(=O)CO5)[C@H](OC)C3)c2c1	–	0.179	–	–
COc1cc2ncc(C(N)=O)c(Nc3cccc(Cl)c3Cl)c2cc1N1CCN(C)CC1	–	0.0447	–	–
CCOc1cc2ncc(C(N)=O)c(Nc3cccc(Cl)c3Cl)c2cc1N1CCN(CCO)CC1	–	0.0477	–	–
CN1CCN(c2ccc3ncc(C(N)=O)c(Nc4cccc(Cl)c4Cl)c3c2)CC1	–	0.0457	–	–
Cc1cccc(Oc2cc(S(=O)(=O)N3CCC[C@H](n4cc(C)c(=O)[nH]c4=O)C3)ccc2C(=O)O)c1	–	0.0568	–	–
CCOc1cc2ncc(C(N)=O)c(Nc3cccc(Cl)c3Cl)c2cc1N1CCN(CC)CC1	–	0.0183	–	–
NC1=NC(c2ccc(F)cc2)Cc2ccccc21 (stereo unspecified)	–	0.36	–	–
CC(C)COc1cccc(/C=C2\SC(=O)NC2=O)c1N1CCC[C@@H](N)C1	–	0.0119	–	–
C=CC1(C)CC(=O)C2(O)C(C)(O1)C(OC(C)=O)C(O)C1C(C)(C)CCC(O)C12C (stereo unspecified)	–	0.16	–	–
CC(=O)Nc1ccc2c(c1)c(-c1cc(NC3CC3)n3ncc(C#N)c3n1)cn2CCO	–	0.0179	–	–
COc1cc(Cc2cnc(N)nc2N)cc(OC)c1OC [TRIMETHOPRIM]	–	0.339	–	–
N#Cc1c(-c2ccc(-c3ccncc3Cl)cc2)nc2ccncc2c1O	–	0.0055	–	–
COc1cc(OC)c(S(=O)(=O)N2c3ccccc3CCC2C)cc1NC(=O)CSCC(=O)O (stereo unspecified)	–	0.126	–	–
COc1ccc(C[C@H](N)C(=O)N[C@@H](Cc2ccccc2C)C(N)=O)cc1 (H-Tyr(Me)-[Phe(2-Me)]-NH2)	–	0.36	–	–
COc1cccc(-c2cc3c(N[C@H]4CCCNC4)ncc(C(N)=O)c3s2)c1	–	0.0437	–	–
Cc1ccc(/C(=C\CN2CCCC2)c2ccccn2)cc1 [TRIPROLIDINE]	–	0.645	–	–
CNC(=O)c1[nH]cnc1C(=O)Nc1ccc(Cl)cc1	–	0.0268	–	–
CN[C@@H](C)C(=O)N[C@H](C(=O)N1CCC[C@H]1C(=O)N[C@@H]1CCCc2ccccc21)C(C)(C)C	–	0.0801	–	–
COc1cc(OC)c(S(=O)(=O)N2c3ccccc3CCC2C)cc1NC(=O)CCC(=O)O (stereo unspecified)	–	0.186	–	–
C[C@](N)(Cc1ccccc1)c1ccccc1	–	–	–	0.179
CCn1cc(CNC(=O)c2cc(-c3ccc(C)cc3)nc3ccc(Br)cc23)c(C)n1	–	0.0011	–	–
Cc1ccc(Cl)cc1NC(=O)CCS(=O)(=O)c1ccc(Br)s1	–	–	–	0.0111
